In article PMC12567098, “Multi-Kinase Inhibition by New Quinazoline–Isatin Hybrids: Design, Synthesis, Biological Evaluation and Mechanistic Studies” (Pharmaceuticals, 2025):

How the values were obtained:
WI38 = assay: MTT cytotoxicity assay, normal fibroblast WI38; assay type: cell-based; conditions: Homo sapiens, WI-38, 48 h, normal fibroblast cell line WI38
Text: (§1) Doxorubicin and sunitinib were used as positive controls for comparison.
(§2) The MTT assay is widely used to measure cell proliferation, cell viability, and cytotoxicity. It is based on reducing MTT dye into formazan crystals by living cells, determining mitochondrial activity.
(§3) 3.4. Biological Screening
(§4) Four cancer celllines; Hepatocellular carcinoma (HepG2), Breast adenocarcinoma (MCF-7), Breast adenocarcinoma […]
(§5) from American Type Culture Collection (ATCC, USA) via Holding company for biological products and vaccines (VACSERA), Cairo, Egypt. Antibiotic solutions and sterilesolutions were purchased from Sigma-Aldrich.
(§6) 3.4.2. Cytotoxicity Assay […]
(§7) dimethylthiazol-2-yl)-2,5-diphenyltetrazolium bromide) assay.[41–43] MTT assay is widely used to measure cell proliferation, cell viability, and cytotoxicity. It is based on reducing MTT dye into formazan crystals by living cells, determining mitochondrial activity.[44] For the assay, cells were seeded in Dulbecco’s modified minimum essential medium (DMEM) at a density of 1.0× 10^4 cells/well in 96-well plates, supplemented with 10% FBS and 5% CO2 at 37 °C for 24 h. To each well, a test compound was added at different concentrations .Each concentration was examined three times. Then the cells were treated with the compounds at 37 °C under 5 % CO2 for 48 h. Following this, MTT dye was added to each well at a final concentration of 0.5 mg/ml. Cells were treated with this tetrazolium dye for 4 h. Next, […]
(§8) dissolved by adding 100 µl dimethyl sulfoxide (DMSO), and the absorbance in each well was recorded at 570 nm in a […]
(§9) Absorbance at 570nm directly correlates with cell viability. IC50 (μM) values were determined using Graph Pad Prism software version 5 (Graph Pad Software Inc, CA). The cells were also treated with Doxorubicin; a standard anticancer drug used as positive control.

HepG2 = assay: MTT cytotoxicity assay, HepG2; assay type: cell-based; conditions: Homo sapiens, 48 h
Description: (§10) The synthesized isatin–quinazoline compounds (6a–d) were assessed for their cytotoxicity against four cancer cell lines, namely, hepatocellular carcinoma HepG2, breast carcinoma MCF-7, breast adenocarcinoma MDA-MB-231, and cervical carcinoma HeLa, using an MTT colorimetric assay. Doxorubicin and sunitinib were used as positive controls for comparison. The antiproliferative activities are expressed as the median growth inhibitory concentration (IC50) in micromolar range and are described in Table 1.
(§11) Cytotoxicity of the synthesized compounds 6a–d was assessed by performing a colorimetric MTT (3-(4,5-dimethylthiazol-2-yl)-2,5-diphenyltetrazolium bromide) assay. The MTT assay is widely used to measure cell proliferation, cell viability, and cytotoxicity. It is based on reducing MTT dye into formazan crystals by living cells, determining mitochondrial activity.
as §3
(§12) Four cancer celllines; Hepatocellular carcinoma (HepG2), Breast adenocarcinoma (MCF-7), Breast adenocarcinoma (MDA-MB-231), and Cervical carcinoma (HeLa) and normal fibroblast cell line (WI38) used in this study were obtained from American Type Culture Collection (ATCC, USA) via Holding company for biological products and vaccines (VACSERA), Cairo, Egypt. Antibiotic solutions and sterilesolutions were purchased from Sigma-Aldrich.
(§13) 3.4.2. Cytotoxicity Assay
(§14) Cytotoxicity of the synthesized compounds 6a-d was done by performing a colorimetric MTT ( 3-(4,5-dimethylthiazol-2-yl)-2,5-diphenyltetrazolium bromide) assay.[41–43] MTT assay is widely used to measure cell proliferation, cell viability, and cytotoxicity. It is based on reducing MTT dye into formazan crystals by living cells, determining mitochondrial activity.[44] For the assay, cells were seeded in Dulbecco’s modified minimum essential medium (DMEM) at a density of 1.0× 10^4 cells/well in 96-well plates, supplemented with 10% FBS and 5% CO2 at 37 °C for 24 h. To each well, a test compound was added at different concentrations .Each concentration was examined three times. Then the cells were treated with the compounds at 37 °C under 5 % CO2 for 48 h. Following this, MTT dye was added to each well at a final concentration of 0.5 mg/ml. Cells were treated with this tetrazolium dye for 4 h. Next, purple crystals of formazan were noticed in each well, formed as a metabolic product of MTT. These crystals were dissolved by adding 100 µl dimethyl sulfoxide (DMSO), and the absorbance in each well was recorded at 570 nm in a microplate reader (EXL 800, USA). Absorbance at 570nm directly correlates with cell viability. IC50 (μM) values were determined using Graph Pad Prism software version 5 (Graph Pad Software Inc, CA). The cells were also treated with Doxorubicin; a standard anticancer drug used as positive control.

MCF-7 = assay: MTT cytotoxicity assay, MCF-7; assay type: cell-based; conditions: Homo sapiens, MCF7, 48 h
Text: as §1, §2, §3, §4, §5, §6, §7, §8, §9

MDA-MB-231 = assay: MTT cytotoxicity assay, MDA-MB-231; assay type: cell-based; conditions: Homo sapiens, 48 h
Description: as §10, §11, §3, §12, §13, §14

HeLa = assay: MTT cytotoxicity assay, HeLa; assay type: cell-based; conditions: Homo sapiens, 48 h
Text: as §1, §2, §3, §4, §5, §6, §7, §8, §9

HepG2 cells [1] = assay: Propidium iodide flow cytometry cell cycle analysis; assay type: cell-based; conditions: HepG2, 2.6 μM, 24 h
Description: Its impacts on cell cycle progression and induction of apoptosis were investigated. The effect of compound 6c on the regulation of the cell cycle progression was studied using a Propidium Iodide Flow Cytometry Kit assay. Alterations in the cell cycle were recorded after the treatment of HepG2 cells with 2.6 μM of compounds 6c, chosen for its excellent antiproliferative activities within 24 h.
Cell cycle arrest and distribution were evaluated using a Propidium Iodide Flow Cytometry Kit (ab139418, Abcam, Cambridge, MA, USA) followed by flow cytometry analysis.
3.4.3. Flow cytometry cell cycle analysis
Cell cycle arrest and distribution were evaluated using the Propidium Iodide Flow Cytometry Kit (ab139418, Abcam) followed by flow cytometry analysis.[45,46] First, HepG2 cells were cultured at a density of 2 × 10^5/well for 24 h in the presence of tested newly synthesized compounds 6c (2.6 μM) (control cells were left untreated and both measurements were done in triplicate). Then, the attached cells were supplemented with trypsin, washed with ice-cold PBS, centrifuged, and fixed using ice -cold 70% ethanol. Next, cells were re -suspended and stored at +4 °C for at least 2 h. After that, cells were incubated with 200 μL 1X Propidium Iodide (PI) + RNase Staining Solution for 30 min at 37 °C in the dark. The DNA content in each cell nucleus was determined by Epics XL -MCL™ flow cytometer (Beckman -Coulter, USA). Finally, cell cycle phase distribution was analyzed using Flowing software 2.5.1 (Turku Centre for Biotechnology, University of Turku, Turku, Finland). […]
University of Turku, Turku, Finland).

HepG2 cells [2] = assay: Annexin V-FITC/PI dual-staining apoptosis assay; assay type: cell-based; conditions: HepG2, 2.6 μM (IC50), 24 h
Description: Apoptosis can be detected by measuring translocated phosphatidylserine (PS) from the interior to the surface of the cell membrane. Therefore, an annexin V-FITC/PI (fluorescein–isothiocyanate/propidium iodide) dual staining flow cytometric assay was carried out for compound 6c to investigate the mechanism of cell death induced by the assessed compound.
The apoptosis assay was performed with an annexin V-FITC/PI double staining apoptosis detection kit (K101, BioVision Inc., Mountain View, CA, USA) using a flow cytometer. Experimental procedures are described in detail in theSupplementary Information. […]
3.4.4. Annexin V-FITC Dual-Staining Apoptosis Assay
Apoptosis assay was performed with an Annexin V-FITC / PI double staining apoptosis detection kit (K101, BioVision Inc, Mountain View, CA, USA) using a flow cytometer.[47,48] […]
concentration (2.6 μM) for 24 h. After treatment, the cells were collected, washed two times with PBS, and resuspended in 500 µL binding buffer. Next, annexin V-FITC (5 µL ) and propidium iodide (PI) 5 µL were intruduced to the suspension and the cells were left in the dark for 15 min at room temperature. Samples were then recorded by Epics XL-MCL™ flow cytometer (Beckman- Coulter, USA) and Flowing software (Turku Centre for Biotechnology, University of Turku, Turku, Finland).

Bax = assay: RT-qPCR gene expression analysis, Bax; assay type: cell-based; conditions: HepG2, RT-qPCR, fold vs untreated = 1
Text: (§15) One significant anticancer mechanism is apoptosis. Drugs that induce apoptosis cause simultaneous or subsequent activation of death receptor systems, mitochondrial dysfunction, and caspase proteolytic processing. Thus, the cell death pathway may occur in several locations. In this study, the alteration in Bax, Bcl-2, and caspase-3 and 9 gene expression following the stimulation of apoptosis by 6c in HepG2 cells using the RT-qPCR method and staurosporine as a positive control is reported in Table 4.
(§16) 3.4.5. Gene Expression Analysis
(§17) After the RNA extraction,
(§18) reverse transcriptase enzyme.
(§19) The amplification reactions
(§20) The data were analyzed using a […]

Bcl-2 = assay: RT-qPCR gene expression analysis, Bcl-2; assay type: cell-based; conditions: HepG2, RT-qPCR, fold vs untreated = 1
Text: as §15, §16, §17, §18, §19, §20

Caspase-3 = assay: RT-qPCR gene expression analysis, caspase-3; assay type: cell-based; conditions: HepG2, RT-qPCR, fold vs untreated = 1
Text: as §15, §16, §17, §18, §19, §20

Caspase-9 = assay: RT-qPCR gene expression analysis, caspase-9; assay type: cell-based; conditions: HepG2, RT-qPCR, fold vs untreated = 1
Text: as §15, §16, §17, §18, §19, §20

CDK2 = biological target: T1, CDK2 (Homo sapiens, UniProt P24941); assay: In vitro CDK2 kinase inhibitory assay (BPS kit, Kinase-Glo); assay type: biochemical; conditions: 40 min at 30 °C
T1 construct: purchased BPS Biosciences, San Diego, CA, USA

VEGFR-2 = biological target: T2, VEGFR-2 (Homo sapiens, UniProt P35968); assay: In vitro VEGFR-2 kinase inhibitory assay (BPS kit, Kinase-Glo); assay type: biochemical; conditions: 40 min at 30 °C
T2 construct: purchased BPS Biosciences, San Diego, CA, USA
T2 sequence (P35968 20-1356): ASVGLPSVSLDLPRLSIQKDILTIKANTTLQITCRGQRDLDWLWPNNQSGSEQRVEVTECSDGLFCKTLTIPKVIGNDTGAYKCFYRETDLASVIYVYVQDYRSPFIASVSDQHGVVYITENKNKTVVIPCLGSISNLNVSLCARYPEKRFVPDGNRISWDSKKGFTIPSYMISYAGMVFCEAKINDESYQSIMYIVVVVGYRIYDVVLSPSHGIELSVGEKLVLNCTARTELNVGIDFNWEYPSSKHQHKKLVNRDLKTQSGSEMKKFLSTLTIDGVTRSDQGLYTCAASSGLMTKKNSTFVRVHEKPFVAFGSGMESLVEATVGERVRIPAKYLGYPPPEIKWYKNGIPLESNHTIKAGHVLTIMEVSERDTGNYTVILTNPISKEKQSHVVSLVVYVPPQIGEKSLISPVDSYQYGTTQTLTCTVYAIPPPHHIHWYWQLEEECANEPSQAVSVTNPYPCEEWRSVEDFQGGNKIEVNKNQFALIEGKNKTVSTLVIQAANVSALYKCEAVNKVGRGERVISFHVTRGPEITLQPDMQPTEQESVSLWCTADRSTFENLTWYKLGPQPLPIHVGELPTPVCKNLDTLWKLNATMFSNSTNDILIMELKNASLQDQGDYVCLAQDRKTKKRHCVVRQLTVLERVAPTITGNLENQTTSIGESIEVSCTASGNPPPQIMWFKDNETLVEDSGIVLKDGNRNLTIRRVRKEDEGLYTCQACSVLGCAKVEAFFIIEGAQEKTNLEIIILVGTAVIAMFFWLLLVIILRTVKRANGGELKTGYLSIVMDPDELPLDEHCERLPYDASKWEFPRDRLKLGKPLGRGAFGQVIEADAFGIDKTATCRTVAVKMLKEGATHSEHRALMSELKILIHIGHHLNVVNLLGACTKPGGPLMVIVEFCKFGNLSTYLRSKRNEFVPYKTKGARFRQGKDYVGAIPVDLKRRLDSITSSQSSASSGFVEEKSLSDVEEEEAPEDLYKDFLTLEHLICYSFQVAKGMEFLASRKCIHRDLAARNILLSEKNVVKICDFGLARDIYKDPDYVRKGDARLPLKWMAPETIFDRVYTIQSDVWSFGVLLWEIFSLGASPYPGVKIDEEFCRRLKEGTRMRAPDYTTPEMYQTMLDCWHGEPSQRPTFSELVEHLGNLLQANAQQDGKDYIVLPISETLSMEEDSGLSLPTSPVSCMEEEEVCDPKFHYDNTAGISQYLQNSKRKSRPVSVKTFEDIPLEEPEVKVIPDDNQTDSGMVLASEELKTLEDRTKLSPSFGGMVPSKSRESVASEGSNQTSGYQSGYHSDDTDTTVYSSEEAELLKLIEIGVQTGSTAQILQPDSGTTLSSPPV

EGFR = EGFR (Homo sapiens, UniProt P00533); assay: In vitro EGFR kinase inhibitory assay (BPS kit, Kinase-Glo)
EGFR, sequence (P00533 25-1210): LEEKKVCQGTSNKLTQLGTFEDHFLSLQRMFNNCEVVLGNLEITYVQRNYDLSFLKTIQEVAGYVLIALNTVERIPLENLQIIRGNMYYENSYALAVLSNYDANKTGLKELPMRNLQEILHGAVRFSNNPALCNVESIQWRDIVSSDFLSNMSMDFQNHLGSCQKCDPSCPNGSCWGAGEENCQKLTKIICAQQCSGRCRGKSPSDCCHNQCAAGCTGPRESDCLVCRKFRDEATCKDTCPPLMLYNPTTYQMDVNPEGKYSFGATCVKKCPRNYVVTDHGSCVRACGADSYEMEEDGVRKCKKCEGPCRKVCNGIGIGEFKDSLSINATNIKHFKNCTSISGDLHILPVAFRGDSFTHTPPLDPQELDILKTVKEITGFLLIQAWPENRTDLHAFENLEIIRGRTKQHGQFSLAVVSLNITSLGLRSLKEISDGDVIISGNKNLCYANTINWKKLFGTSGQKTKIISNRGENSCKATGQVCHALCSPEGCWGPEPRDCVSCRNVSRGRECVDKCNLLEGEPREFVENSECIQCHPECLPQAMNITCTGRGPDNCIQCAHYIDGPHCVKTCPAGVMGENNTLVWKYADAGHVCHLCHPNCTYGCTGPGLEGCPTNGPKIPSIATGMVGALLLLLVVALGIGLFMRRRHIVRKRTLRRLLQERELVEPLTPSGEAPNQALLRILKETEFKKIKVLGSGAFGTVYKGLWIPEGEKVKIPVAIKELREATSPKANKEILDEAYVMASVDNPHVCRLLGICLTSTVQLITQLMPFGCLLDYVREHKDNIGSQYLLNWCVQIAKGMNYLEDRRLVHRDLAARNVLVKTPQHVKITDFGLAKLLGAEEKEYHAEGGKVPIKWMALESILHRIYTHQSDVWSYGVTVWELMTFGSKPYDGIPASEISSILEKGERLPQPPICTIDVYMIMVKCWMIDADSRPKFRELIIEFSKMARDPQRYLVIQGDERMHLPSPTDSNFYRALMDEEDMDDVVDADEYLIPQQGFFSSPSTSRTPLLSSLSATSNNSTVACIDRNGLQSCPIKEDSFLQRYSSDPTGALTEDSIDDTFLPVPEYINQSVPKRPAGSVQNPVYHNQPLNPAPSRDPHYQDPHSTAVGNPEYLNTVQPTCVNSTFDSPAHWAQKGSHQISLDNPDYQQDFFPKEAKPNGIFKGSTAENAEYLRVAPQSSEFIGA
Description: (§21) In vitro CDK2, EGFR, VEGFR -2, and HER2 Inhibitory Assays
(§22) using CDK2, EGFR, VEGFR -2, and HER2 Kinase Assay Kit (BPS Biosciences, San Diego, CA).[50] At first, CDK2, EGFR,
(§23) initi-ate the catalytic function of the enzymes. Detection reagent (Kinase-Glo® Max reagent) was the added to stop
(§24) the reaction, followed by incubation at room temperature for 15 min. Then the IC50 values were calculated by
(§25) measuring luminescence signal at 450 nm using a plate reader (Tecan Spark® 10M, Männedorf, Switzerland). All
(§26) assays were carried out based on protocol from manufacture. All samples and controls were tested in duplicate.

HER2 = HER2 (Homo sapiens, UniProt P04626); assay: In vitro HER2 kinase inhibitory assay (BPS kit, Kinase-Glo); conditions: read-out: IC50 HER2, 40 min at 30 °C
HER2, sequence (P04626 23-1255): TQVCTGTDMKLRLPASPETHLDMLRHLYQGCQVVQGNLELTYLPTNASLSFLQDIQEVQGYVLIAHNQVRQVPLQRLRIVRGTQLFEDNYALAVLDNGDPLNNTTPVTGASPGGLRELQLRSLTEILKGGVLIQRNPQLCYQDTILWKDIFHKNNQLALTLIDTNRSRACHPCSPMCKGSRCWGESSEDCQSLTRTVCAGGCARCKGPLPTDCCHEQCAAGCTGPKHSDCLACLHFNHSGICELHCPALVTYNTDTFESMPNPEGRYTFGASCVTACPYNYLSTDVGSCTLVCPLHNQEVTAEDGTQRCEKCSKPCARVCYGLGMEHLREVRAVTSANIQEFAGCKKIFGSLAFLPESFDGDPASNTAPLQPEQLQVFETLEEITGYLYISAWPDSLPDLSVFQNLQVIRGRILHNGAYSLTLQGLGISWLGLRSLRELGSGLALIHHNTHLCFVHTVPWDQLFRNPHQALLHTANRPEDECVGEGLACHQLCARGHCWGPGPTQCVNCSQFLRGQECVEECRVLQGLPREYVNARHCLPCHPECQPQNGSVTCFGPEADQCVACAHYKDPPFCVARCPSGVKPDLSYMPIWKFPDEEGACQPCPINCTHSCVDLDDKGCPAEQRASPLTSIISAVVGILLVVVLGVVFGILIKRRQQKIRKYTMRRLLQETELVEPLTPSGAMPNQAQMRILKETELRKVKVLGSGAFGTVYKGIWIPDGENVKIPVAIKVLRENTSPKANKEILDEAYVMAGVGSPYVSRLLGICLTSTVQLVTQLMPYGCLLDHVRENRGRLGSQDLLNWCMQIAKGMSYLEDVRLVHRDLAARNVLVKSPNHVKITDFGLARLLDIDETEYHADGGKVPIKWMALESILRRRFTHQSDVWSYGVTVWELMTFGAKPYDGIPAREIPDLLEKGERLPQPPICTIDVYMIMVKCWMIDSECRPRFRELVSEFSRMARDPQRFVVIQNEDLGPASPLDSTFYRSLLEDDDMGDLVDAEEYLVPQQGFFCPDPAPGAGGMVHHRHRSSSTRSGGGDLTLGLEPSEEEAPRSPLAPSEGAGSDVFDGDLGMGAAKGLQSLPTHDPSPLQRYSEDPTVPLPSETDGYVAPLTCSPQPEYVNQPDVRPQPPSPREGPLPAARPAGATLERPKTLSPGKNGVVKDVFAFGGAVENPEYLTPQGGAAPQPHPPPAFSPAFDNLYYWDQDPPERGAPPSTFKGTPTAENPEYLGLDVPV
Description: as §21, §22, §23, §24, §25, §26

Structure (SMILES)	IC50 (WI38) [µM]	IC50 (HepG2) [µM]	IC50 (MCF-7) [µM]	IC50 (MDA-MB-231) [µM]	IC50 (HeLa) [µM]	further results
O=C1Nc2ccccc2/C1=N/NC(=O)c1ccc(Nc2ncnc3ccccc23)cc1 [Compound 6a, (Z)-N′-(2-Oxoindolin-3-ylidene)-4-(quinazolin-4-ylamino) benzohydrazide]	34.1 ± 2.6	7.98 ± 0.6	4.89 ± 0.3	6.24 ± 0.5	13.1 ± 0.9	
O=C1Nc2ccc(Cl)cc2/C1=N/NC(=O)c1ccc(Nc2ncnc3ccccc23)cc1 [Compound 6b, (Z)-N′-(5-Chloro-2-oxoindolin-3-ylidene)-4-(quinazolin-4-ylamino)benzohydrazide]	> 100	61.4 ± 3.5	70.7 ± 3.4	56.3 ± 3.2	66.8 ± 3.4	
O=C1Nc2ccc(F)cc2/C1=N/NC(=O)c1ccc(Nc2ncnc3ccccc23)cc1 [Compound 6c, (Z)-N′-(5-Fluoro-2-oxoindolin-3-ylidene)-4-(quinazolin-4-ylamino)benzohydrazide]	57.3 ± 3.3	2.61 ± 0.1	3.78 ± 0.2	5.18 ± 0.4	7.6 ± 0.5	Cell Cycle Distribution (%) % Sub-G1 (HepG2 cells [1]): 42.79%; Cell Cycle Distribution (%) %G0–G1 (HepG2 cells [1]): 36.47%; Cell Cycle Distribution (%) %G2/M (HepG2 cells [1]): 9.92%; Cell Cycle Distribution (%) %S (HepG2 cells [1]): 53.61%; Necrosis (HepG2 cells [2]): 2.94; Apoptosis Induction Analysis Early (HepG2 cells [2]; in % (unit assumed)): 28.64; Apoptosis Induction Analysis Late (HepG2 cells [2]; in % (unit assumed)): 11.21; Apoptosis Induction Analysis Total (HepG2 cells [2]; in % (unit assumed)): 42.79; Protein Expression (Normalized to β-Actin) Bax (Bax): 4.585; Protein Expression (Normalized to β-Actin) Bcl-2 (Bcl-2): 0.185; Protein Expression (Normalized to β-Actin) Caspase-3 (Caspase-3): 10.13; Protein Expression (Normalized to β-Actin) Caspase-9 (Caspase-9): 2.795; IC50 (CDK2): 0.183 ± 0.01 µM; IC50 (VEGFR-2): 0.076 ± 0.004 µM; IC50 (EGFR): 0.083 ± 0.005 µM; IC50 (HER2): 0.138 ± 0.07 µM
Cc1ccc2c(c1)/C(=N/NC(=O)c1ccc(Nc3ncnc4ccccc34)cc1)C(=O)N2 [Compound 6d, (Z)-N′-(5-Methyl-2-oxoindolin-3-ylidene)-4-(quinazolin-4-ylamino)benzohydrazide]	65.8 ± 3.8	87.4 ± 4.5	> 100	82.7 ± 4.3	> 100	
COc1cccc2c1C(=O)c1c(O)c3c(c(O)c1C2=O)C[C@@](O)(C(=O)CO)C[C@@H]3O[C@H]1C[C@H](N)[C@H](O)[C@H](C)O1 [Doxorubicin, reference compound]		4.5 ± 0.2				
CN[C@@H]1C[C@H]2O[C@@](C)([C@@H]1OC)n1c3ccccc3c3c4c(c5c6ccccc6n2c5c31)C(=O)NC4 [Staurosporine, reference compound]						Protein Expression (Normalized to β-Actin) Bax (Bax): 6.794; Protein Expression (Normalized to β-Actin) Bcl-2 (Bcl-2): 0.351; Protein Expression (Normalized to β-Actin) Caspase-3 (Caspase-3): 8.43; Protein Expression (Normalized to β-Actin) Caspase-9 (Caspase-9): 4.614
CCN(CC)CCNC(=O)c1c(C)[nH]c(/C=C2\C(=O)Nc3ccc(F)cc32)c1C [Sunitinib, reference compound]	43 ± 2.9	6.82 ± 0.5	5.19 ± 0.4	8.41 ± 0.7	7.48 ± 0.6	
